Measured values published in patent US8163479B2, “Specific substrates for O6-alkylguanine-DNA alkyltransferase” (Ecole Polytechnique Federale de Lausanne, priority 2004, dated 2012).
Numbering of substitutions follows the chain as printed.

Assays:
AGTM (mutant AGT) = biological target: T1, AGTM (mutant AGT) (Homo sapiens, UniProt P16455, A127T/C150N/C62A/G131K/G132T/K125A/M134L/N157G/Q115S/Q116H/R128A/R135S/S151I/S152N/S159E); experiment: Reaction rate of AGT mutant with substrate, BGBT capture and Western blot; assay type: biochemical
T1 construct: a truncation after codon 182 into the mutant AGT gene; 6xHis
T1 sequence (P16455 1-182 C62A/Q115S/Q116H/K125A/A127T/R128A/G131K/G132T/M134L/R135S/C150N/S151I/S152N/N157G/S159E): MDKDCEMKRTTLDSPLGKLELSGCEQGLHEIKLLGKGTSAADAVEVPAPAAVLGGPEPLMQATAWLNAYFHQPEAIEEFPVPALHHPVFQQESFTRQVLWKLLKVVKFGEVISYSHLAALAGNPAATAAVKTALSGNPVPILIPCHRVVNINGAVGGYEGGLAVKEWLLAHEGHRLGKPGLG
Description: Proteins are then denatured with SDS and heat. Samples are subjected to SDS-PAGE and Western blot analysis. The intensity of the corresponding bands is detected by chemiluminescence stain.
A second AGT mutant (“AGTM”) containing the mutations Cys62Ala, Gln115Ser, Gln116His, Lys125Ala, Ala127Thr, Arg128Ala, Gly131Lys, Gly132Thr, Met134Leu, Arg135Ser, Cys150Asn, Ser15111e, Ser152Asn, Asn157Gly, Ser159G1u, and truncation at 182 is derived from the mentioned above AGT mutant by subsequent introduction of further mutations and a truncation after codon 182 into the mutant AGT gene. […] The GST-fusion protein is expressed and purified as well.
AGTM (1 μM final concentration) is incubated with N^9-cyclopentyl-O^6-(4-bromothiophen-2-yl)-guanine (18, CPTG) (10 μM in 1% DMSO final concentration) in reaction buffer (50 mM HEPES, 1 mM DTT, […] BSA, pH 7.3) at 24° C. […] The reaction is quenched by addition of SDS-Laemmli buffer and heating for 2 min at 95° C. Samples are run on a 12% acrylamide gel and analysed by Western blotting.

[1] = biological target: T2, AGT (Gly160Trp)-NLS3 fusion protein in the nucleus of CHO cells (Homo sapiens, UniProt P16455, G160W); experiment: Intracellular competition of two AGT mutants with two substrates in CHO cells; assay type: cell-based; conditions: 5 μM CPTG 10 min, then 5 μM BG-AcFL 20 min
T2 construct: expressed in transfected cells; host or cells: CHO cells, transient expression
T2 sequence (P16455 1-207 G160W): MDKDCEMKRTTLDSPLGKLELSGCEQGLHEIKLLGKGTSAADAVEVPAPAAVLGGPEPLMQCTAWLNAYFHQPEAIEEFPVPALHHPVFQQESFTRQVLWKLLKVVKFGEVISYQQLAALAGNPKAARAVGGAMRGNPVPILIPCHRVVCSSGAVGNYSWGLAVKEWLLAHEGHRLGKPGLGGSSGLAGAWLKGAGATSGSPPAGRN
Description: (§1) The mutant AGTM (Example 47) is amplified with the suitable primers and cloned between the NheI and BglII sites of the vector pEGFP-Nuc. The yeast β-galactosidase gene is likewise amplified and subcloned into this vector via BglII/BamHI to result in a vector with an AGT-β-Gal fusion gene. The wild type hAGT gene is amplified and cloned via NheI/BglII into pEGFP-Nuc to result in an AGT-NLS3 fusion gene coding for the mutation Gly160Trp.

[2] = biological target: T3, AGTM-β-galactosidase fusion protein in CHO cells (Homo sapiens, UniProt P16455, A127T/C150N/C62A/G131K/G132T/K125A/M134L/N157G/Q115S/Q116H/R128A/R135S/S151I/S152N/S159E); experiment: as above; assay type: cell-based; conditions: 5 μM CPTG 10 min, then 5 μM BG-AcFL 20 min
T3 construct: a truncation after codon 182 into the mutant AGT gene; expressed in transfected cells; host or cells: CHO cells, transient expression
T3 sequence (P16455 1-182 C62A/Q115S/Q116H/K125A/A127T/R128A/G131K/G132T/M134L/R135S/C150N/S151I/S152N/N157G/S159E): T1 sequence (P16455 1-182 C62A/Q115S/Q116H/K125A/A127T/R128A/G131K/G132T/M134L/R135S/C150N/S151I/S152N/N157G/S159E)
Description: as §1

wild type hAGT = biological target: T4, wild type hAGT (Homo sapiens, UniProt P16455); experiment: In vitro competition between CPTG and BGBT, separate incubation; assay type: biochemical; conditions: CPTG 20 times higher than BGBT (0.5 μM), after 45 minutes
T4 sequence (P16455 1-207): T2 sequence (P16455 1-207 G160W) with W160G
Experimental: (§2) The reaction is quenched by addition of 2×SDS buffer and placed 2 min at 95° C. Samples are run on a 12% acrylamide gel and analysed by Western blotting.

Mutant AGT (AGTM) = biological target: T5, Mutant AGT (AGTM) (Homo sapiens, UniProt P16455, A127T/C150N/C62A/G131K/G132T/K125A/M134L/N157G/Q115S/Q116H/R128A/R135S/S151I/S152N/S159E); experiment: as above; assay type: biochemical; conditions: CPTG 20 times higher than BGBT (0.5 μM), after 45 minutes
T5 construct: a truncation after codon 182 into the mutant AGT gene
T5 sequence (P16455 1-182 C62A/Q115S/Q116H/K125A/A127T/R128A/G131K/G132T/M134L/R135S/C150N/S151I/S152N/N157G/S159E): T1 sequence (P16455 1-182 C62A/Q115S/Q116H/K125A/A127T/R128A/G131K/G132T/M134L/R135S/C150N/S151I/S152N/N157G/S159E)
Experimental: as §2

[3] = biological target: T6, AGTM-6×His fusion protein (Homo sapiens, UniProt P16455, A127T/C150N/C62A/G131K/G132T/K125A/M134L/N157G/Q115S/Q116H/R128A/R135S/S151I/S152N/S159E); experiment: In vitro competition CPTG/BGBT, both proteins in one solution; assay type: biochemical; conditions: both substrates CPTG and BGBT 5 μM, 30 min
T6 construct: a truncation after codon 182 into the mutant AGT gene; 6xHis
T6 sequence (P16455 1-182 C62A/Q115S/Q116H/K125A/A127T/R128A/G131K/G132T/M134L/R135S/C150N/S151I/S152N/N157G/S159E): T1 sequence (P16455 1-182 C62A/Q115S/Q116H/K125A/A127T/R128A/G131K/G132T/M134L/R135S/C150N/S151I/S152N/N157G/S159E)
Experimental: (§3) Detection of the AGTM-BGBT complex with luminescent peroxidase substrate is as described for FIG. 2.
as §2
(§4) In comparing the reaction of AGTM and wild type hAGT, a high specificity of CPTG toward hAGT is observed. At the same concentration (both substrates 5 μM final concentration), 95% of wild type AGT has reacted with CPTG versus only 5% of AGTM.

[4] = biological target: T7, wild type hAGT-GST fusion protein (Homo sapiens, UniProt P16455); experiment: as above; assay type: biochemical; conditions: both substrates CPTG and BGBT 5 μM, 30 min
T7 sequence (P16455 1-207): T2 sequence (P16455 1-207 G160W) with W160G
Experimental: as §3, §2, §4

AGTM or AGT21 = experiment: One-pot labeling and separation with streptavidin magnetic beads; assay type: biochemical, human; conditions: 5 μM protein, 10 μM substrate, 1 hour; fluorescence 490/535 nm in supernatant
Experimental: In other experiments, purified AGTM or AGT21 (Example 47) in a protein concentration of 5 μM are incubated with 10 μM N-[4-(2-amino-8-(3-(N-(+)-biotinyl-6-aminocaproyl)-aminopropyl)-9H-purin-6-yloxymethyl)-benzyl]-fluoresceine-5(6)-carboxamide (52, Example 34) in 50 μl buffer containing 100 mM NaCl, 50 mM Tris, pH 8.0, 0.1% Tween, 1 mM DTT at room temperature. After 1 hour, streptavidin coated magnetic beads (Magnabind Streptavidin, Pierce) with a capacity to bind at least 1 nmol biotin are added and the incubation time and magnetic separation from the supernatant containing fluorescein-labeled protein are done according to manufacturer's instructions for use. The amount of protein in solution before and after the treatment with magnetic beads is determined by Bradford assay. The loss of protein is less than 30%. The labeling efficiency is determined by measuring the fluorescence intensity using a Victor2 microplate reader (Perkin Elmer) at 490 nm excitation and 535 nm emission in the supernatant after removal of the unreacted substrate and released product by binding to the beads and magnetic separation. The labeling efficiency is at least 20%.

AGTM = biological target: T8, AGTM (Homo sapiens, UniProt P16455, A127T/C150N/C62A/G131K/G132T/K125A/M134L/N157G/Q115S/Q116H/R128A/R135S/S151I/S152N/S159E); experiment: Labeling with substrate pre-immobilized on streptavidin magnetic beads; assay type: biochemical; conditions: AGTM 50 μM, 20 h
T8 construct: a truncation after codon 182 into the mutant AGT gene
T8 sequence (P16455 1-182 C62A/Q115S/Q116H/K125A/A127T/R128A/G131K/G132T/M134L/R135S/C150N/S151I/S152N/N157G/S159E): T1 sequence (P16455 1-182 C62A/Q115S/Q116H/K125A/A127T/R128A/G131K/G132T/M134L/R135S/C150N/S151I/S152N/N157G/S159E)
Experimental: In a further experiment, wherein the substrate is pre-immobilized, streptavidin coated magnetic beads (Magnabind Streptavidin, Pierce) with a capacity to bind […] biotin per ml are incubated with twofold excess of compound 52 (as above) in buffer containing 100 mM NaCl, 50 mM Tris, pH 8.0, 0.1% Tween at room temperature to immobilize the substrate to the beads. The incubation time and magnetic separation from the supernatant are done according to manufacturer's instructions for use. Unbound substrate is removed with buffer by 3 subsequent washing steps. AGTM at a protein concentration of 50 μM is incubated with these substrate-modified beads in 50 μl buffer containing 100 mM NaCl, 50 mM Tris, pH 8.0, 0.1% Tween, 1 mM DTT at room temperature. After 20 h, the beads are separated from the supernatant containing fluorescein-labeled protein. The amount of protein in solution before and after the treatment with magnetic beads is determined by Bradford assay.

activity ratio of the two substrates BGBT/CPTG (AGTM (mutant AGT); AGTM)	second order rate constant k2 (AGTM (mutant AGT); AGTM 1 μM, substrate 10 μM, 24° C., pH 7.3) [M⁻¹ s⁻¹]	reaction with CPTG inside cells [1]	reaction with CPTG inside cells [2]	wild type AGT quenched by CPTG (wild type hAGT) [%]	mutant AGTM still active (Mutant AGT (AGTM)) [%]	AGTM reacted with CPTG [3] [%]	wild type AGT reacted with CPTG [4] [%]	labeling efficiency (AGTM)	loss of protein (AGTM; Bradford assay)	Substance	labeling efficiency (AGTM or AGT21)
at least 25	92.5	efficiently reacts with CPTG	does not react with CPTG	95	87	5	95			N^9-Cyclopentyl-O^6-(4-bromothiophen-2-yl)-guanine [CPTG]	
								at least 20%	less than 30%	N-[4-(2-Amino-8-(3-(N-(+)-biotinyl-6-aminocaproyl)-aminopropyl)-9H-purin-6-yloxymethyl)-benzyl]-fluoresceine-5(6)-carboxamide [compound 52]	at least 20%
